# From patent US20230257396A1, “MACROCYCLES AND THEIR USE” (BLOSSOMHILL THERAPEUTICS, INC., priority 2020, published 2023)
# Key:
# Test in all cases: KINOMEscan kinase binding assay (Eurofins/DiscoveRx), % Ctrl
# Details in all cases: 1 μM
# [1] = molecular target: T1, kinases (Homo sapiens, UniProt P10721, T670I/V559D)
# T1 construct: purchased Eurofins/DiscoveRx; host or cells: E. coli BL21-derived host (T7 phage display) for most kinases; HEK-293 for the rest
# How it was run: (§1)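 Competition binding, 1 h RT: phage-tagged or HEK-293-expressed DNA-tagged kinase + immobilized ligand + compound. Eluate kinase by qPCR. % Ctrl = (test − positive ctrl)/(negative ctrl − positive ctrl) × 100; lower means stronger binding.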
# [2] = molecular target: T2, kinases (Homo sapiens, UniProt P00533, G719S)
# T2 construct: purchased Eurofins/DiscoveRx; host or cells: E. coli BL21-derived host (T7 phage display) for most kinases; HEK-293 for the rest
# How it was run: as §1
# [3] = molecular target: T3, kinases (Homo sapiens, UniProt P00519, T315I)
# T3 construct: purchased Eurofins/DiscoveRx; host or cells: E. coli BL21-derived host (T7 phage display) for most kinases; HEK-293 for the rest
# How it was run: as §1
# [4] = molecular target: T4, kinases (Homo sapiens, UniProt P36888, K663Q)
# T4 construct: purchased Eurofins/DiscoveRx; host or cells: E. coli BL21-derived host (T7 phage display) for most kinases; HEK-293 for the rest
# T4 sequence (P36888 27-993 K663Q): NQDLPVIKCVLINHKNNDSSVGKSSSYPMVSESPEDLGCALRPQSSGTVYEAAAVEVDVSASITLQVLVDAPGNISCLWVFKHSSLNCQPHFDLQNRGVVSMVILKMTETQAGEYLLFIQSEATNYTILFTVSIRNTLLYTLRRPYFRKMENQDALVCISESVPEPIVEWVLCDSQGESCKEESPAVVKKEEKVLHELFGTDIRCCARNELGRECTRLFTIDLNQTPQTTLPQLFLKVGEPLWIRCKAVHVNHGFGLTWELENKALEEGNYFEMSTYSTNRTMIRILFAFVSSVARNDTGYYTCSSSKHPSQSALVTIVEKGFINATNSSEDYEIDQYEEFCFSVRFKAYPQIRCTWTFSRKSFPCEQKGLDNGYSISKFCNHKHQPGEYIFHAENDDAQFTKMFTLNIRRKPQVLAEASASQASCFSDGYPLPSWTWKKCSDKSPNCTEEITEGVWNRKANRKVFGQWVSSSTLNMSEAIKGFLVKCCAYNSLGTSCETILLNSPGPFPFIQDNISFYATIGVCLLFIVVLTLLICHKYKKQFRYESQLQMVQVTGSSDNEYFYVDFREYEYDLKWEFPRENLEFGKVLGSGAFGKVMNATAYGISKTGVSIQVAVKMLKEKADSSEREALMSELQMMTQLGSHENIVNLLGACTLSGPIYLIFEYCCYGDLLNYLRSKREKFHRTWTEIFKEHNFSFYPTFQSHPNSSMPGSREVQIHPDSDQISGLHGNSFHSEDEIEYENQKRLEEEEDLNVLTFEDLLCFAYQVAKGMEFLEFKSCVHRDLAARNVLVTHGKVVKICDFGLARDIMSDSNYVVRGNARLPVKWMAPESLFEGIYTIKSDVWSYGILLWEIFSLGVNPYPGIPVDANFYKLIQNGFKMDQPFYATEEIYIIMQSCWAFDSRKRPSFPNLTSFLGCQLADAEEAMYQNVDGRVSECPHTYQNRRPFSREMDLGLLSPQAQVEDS
# How it was run: as §1
# [5] = molecular target: T5, kinases (Homo sapiens, UniProt P42684)
# T5 construct: purchased Eurofins/DiscoveRx; host or cells: E. coli BL21-derived host (T7 phage display) for most kinases; HEK-293 for the rest
# How it was run: as §1
# [6] = molecular target: T6, kinases (Homo sapiens, UniProt P16234)
# T6 construct: purchased Eurofins/DiscoveRx; host or cells: E. coli BL21-derived host (T7 phage display) for most kinases; HEK-293 for the rest
# How it was run: as §1
# [7] = target ABL1(T315I)-nonphosphorylated
# [8] = target ABL1(T315I)-phosphorylated
# T1 sequence (P10721 26-976 V559D/T670I): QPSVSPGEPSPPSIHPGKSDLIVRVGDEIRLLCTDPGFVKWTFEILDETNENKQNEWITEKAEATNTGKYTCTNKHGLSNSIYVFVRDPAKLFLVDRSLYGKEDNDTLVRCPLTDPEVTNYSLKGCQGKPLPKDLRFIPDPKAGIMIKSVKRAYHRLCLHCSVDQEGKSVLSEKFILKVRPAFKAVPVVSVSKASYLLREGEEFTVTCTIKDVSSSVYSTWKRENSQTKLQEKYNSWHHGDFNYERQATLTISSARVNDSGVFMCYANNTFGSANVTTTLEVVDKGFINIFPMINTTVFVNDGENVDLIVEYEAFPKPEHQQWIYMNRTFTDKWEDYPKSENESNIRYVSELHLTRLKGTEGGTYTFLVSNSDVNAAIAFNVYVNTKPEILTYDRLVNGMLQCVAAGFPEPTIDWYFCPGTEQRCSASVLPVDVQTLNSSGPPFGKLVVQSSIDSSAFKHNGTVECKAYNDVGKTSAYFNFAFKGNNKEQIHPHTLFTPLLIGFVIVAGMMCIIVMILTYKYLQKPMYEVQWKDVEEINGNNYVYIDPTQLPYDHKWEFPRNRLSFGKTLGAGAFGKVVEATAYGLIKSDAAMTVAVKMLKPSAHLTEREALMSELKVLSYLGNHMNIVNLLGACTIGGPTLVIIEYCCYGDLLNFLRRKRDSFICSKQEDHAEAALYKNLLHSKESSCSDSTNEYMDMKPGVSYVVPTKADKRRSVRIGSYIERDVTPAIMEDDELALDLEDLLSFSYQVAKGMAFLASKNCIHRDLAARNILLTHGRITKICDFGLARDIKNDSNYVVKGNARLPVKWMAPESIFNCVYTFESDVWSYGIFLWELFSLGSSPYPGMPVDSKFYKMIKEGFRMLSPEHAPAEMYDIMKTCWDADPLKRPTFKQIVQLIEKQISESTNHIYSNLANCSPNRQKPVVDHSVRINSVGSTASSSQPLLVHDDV
# T6 sequence (P16234 24-1089): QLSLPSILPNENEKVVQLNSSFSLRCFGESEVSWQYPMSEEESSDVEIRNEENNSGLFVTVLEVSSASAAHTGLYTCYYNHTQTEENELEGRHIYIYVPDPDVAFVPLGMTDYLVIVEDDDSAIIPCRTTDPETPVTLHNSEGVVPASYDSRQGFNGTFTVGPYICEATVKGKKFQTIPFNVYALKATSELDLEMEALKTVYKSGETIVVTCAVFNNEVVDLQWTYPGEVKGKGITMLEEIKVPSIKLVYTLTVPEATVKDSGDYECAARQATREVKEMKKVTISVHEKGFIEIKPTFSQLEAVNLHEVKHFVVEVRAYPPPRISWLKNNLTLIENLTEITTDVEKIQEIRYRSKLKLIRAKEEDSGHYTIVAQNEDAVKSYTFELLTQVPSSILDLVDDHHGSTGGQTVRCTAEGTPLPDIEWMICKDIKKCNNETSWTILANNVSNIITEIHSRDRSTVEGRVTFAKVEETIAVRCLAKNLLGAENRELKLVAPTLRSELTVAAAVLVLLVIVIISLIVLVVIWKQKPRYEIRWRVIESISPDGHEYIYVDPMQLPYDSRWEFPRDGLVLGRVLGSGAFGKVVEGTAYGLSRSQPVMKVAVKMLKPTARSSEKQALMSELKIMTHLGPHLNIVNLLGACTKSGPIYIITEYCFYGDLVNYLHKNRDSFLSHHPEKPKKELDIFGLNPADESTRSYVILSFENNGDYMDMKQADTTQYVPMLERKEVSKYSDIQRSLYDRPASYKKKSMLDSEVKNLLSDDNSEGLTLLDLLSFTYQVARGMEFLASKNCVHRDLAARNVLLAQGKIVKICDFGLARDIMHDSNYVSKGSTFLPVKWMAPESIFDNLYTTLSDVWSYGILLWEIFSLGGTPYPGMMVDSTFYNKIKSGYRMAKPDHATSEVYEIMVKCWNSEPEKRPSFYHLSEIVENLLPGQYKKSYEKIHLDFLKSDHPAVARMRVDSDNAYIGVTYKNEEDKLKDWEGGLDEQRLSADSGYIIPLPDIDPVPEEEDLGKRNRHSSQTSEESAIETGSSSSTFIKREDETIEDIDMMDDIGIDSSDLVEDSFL
# T5 sequence (P42684 whole entry): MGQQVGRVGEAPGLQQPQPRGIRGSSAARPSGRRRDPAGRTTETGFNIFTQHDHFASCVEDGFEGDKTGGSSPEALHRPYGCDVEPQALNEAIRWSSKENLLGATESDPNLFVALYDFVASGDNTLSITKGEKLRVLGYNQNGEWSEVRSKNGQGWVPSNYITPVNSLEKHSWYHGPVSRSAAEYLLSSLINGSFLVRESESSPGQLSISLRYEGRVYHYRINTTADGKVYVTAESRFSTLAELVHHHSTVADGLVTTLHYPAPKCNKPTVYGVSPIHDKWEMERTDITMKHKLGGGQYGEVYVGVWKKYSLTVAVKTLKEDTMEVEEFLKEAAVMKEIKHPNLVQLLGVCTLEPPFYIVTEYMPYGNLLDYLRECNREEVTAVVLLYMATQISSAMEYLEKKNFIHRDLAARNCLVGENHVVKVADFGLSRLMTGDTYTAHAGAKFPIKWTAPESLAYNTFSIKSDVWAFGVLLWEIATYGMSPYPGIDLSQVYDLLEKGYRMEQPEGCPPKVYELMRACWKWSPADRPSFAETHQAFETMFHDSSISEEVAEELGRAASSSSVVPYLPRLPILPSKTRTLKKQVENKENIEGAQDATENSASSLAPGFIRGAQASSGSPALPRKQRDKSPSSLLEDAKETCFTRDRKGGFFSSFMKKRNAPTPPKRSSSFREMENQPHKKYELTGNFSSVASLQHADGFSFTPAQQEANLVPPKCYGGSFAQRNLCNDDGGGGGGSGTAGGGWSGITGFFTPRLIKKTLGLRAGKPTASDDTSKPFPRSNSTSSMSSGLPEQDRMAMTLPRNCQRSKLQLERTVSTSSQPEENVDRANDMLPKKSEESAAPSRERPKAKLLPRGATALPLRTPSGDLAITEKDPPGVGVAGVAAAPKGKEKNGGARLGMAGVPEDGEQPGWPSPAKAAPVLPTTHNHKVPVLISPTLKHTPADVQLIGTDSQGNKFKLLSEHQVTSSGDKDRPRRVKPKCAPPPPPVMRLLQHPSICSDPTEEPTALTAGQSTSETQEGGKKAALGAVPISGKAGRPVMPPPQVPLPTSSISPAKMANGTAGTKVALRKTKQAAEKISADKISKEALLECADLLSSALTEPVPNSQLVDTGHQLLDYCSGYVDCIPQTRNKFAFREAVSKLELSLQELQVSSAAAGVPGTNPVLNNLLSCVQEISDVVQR
Structure (SMILES),"% Ctrl, KIT(V559D, T670I) ([1]; KIT(V559D, T670I)) [% Ctrl]","% Ctrl, EGFR(G719S) ([2]; EGFR(G719S)) [% Ctrl]","% Ctrl, ABL1(T315I)-nonphosphorylated ([3]; ABL1(T315I)-nonphosphorylated) [% Ctrl]","% Ctrl, ABL1(T315I)-phosphorylated ([3]; ABL1(T315I)-phosphorylated) [% Ctrl]","% Ctrl, FLT3(K663Q) ([4]; FLT3(K663Q)) [% Ctrl]","% Ctrl, ABL2 ([5]; ABL2) [% Ctrl]","% Ctrl, PDGFRA ([6]; PDGFRA) [% Ctrl]","% Ctrl, KIT(V559D, T670I) ([1]; target KIT(V559D, T670I)) [% Ctrl]","% Ctrl, EGFR(G719S) ([2]; target EGFR(G719S)) [% Ctrl]","% Ctrl, ABL1(T315I)-nonphosphorylated [3, 7] [% Ctrl]","% Ctrl, ABL1(T315I)-phosphorylated [3, 8] [% Ctrl]","% Ctrl, FLT3(K663Q) ([4]; target FLT3(K663Q)) [% Ctrl]","% Ctrl, ABL2 ([5]; target ABL2) [% Ctrl]","% Ctrl, PDGFRA ([6]; target PDGFRA) [% Ctrl]"
"Cc1cc2c([nH]1)/C=C1\C(=O)Nc3cc(Cl)c(cc31)OCCOCCN(C)C2=O [Ex. 131, [16a(17)Z]-19-chloro-2,5-dimethyl-6,7,9,10-tetrahydro-1H-12,14-(ethanediylidene)dipyrrolo[3,2-i:3′,4′-l][1,4,7]dioxazacyclopentadecine-4,16(5H,15H)-dione]",0.05,80,0,1.1,7.4,1.8,7.7,,,,,,,
CN1CCSCCOc2cc3c(cc2Cl)NC(=O)/C3=C\c2[nH]ccc2C1=O [Ex. 153],,,,,,,,0.3,45,17,25,1.4,35,9.1
"CN1CCOCCOc2cc3c(cc2Cl)NC(=O)/C3=C\c2[nH]ccc2C1=O [Ex. 143, [16a(17)Z]-19-chloro-2,5-dimethyl-6,7,9,10-tetrahydro-1H-12,14-(ethanediylidene)dipyrrolo[3,2-i:3′,4′-l][1,4,7]oxathiazacyclopentadecine-4,16(5H,15H)-dione]",,,,,,,,1.6,94,42,27,11,40,41
"Cc1cc2c([nH]1)/C=C1\C(=O)Nc3ccc(cc31)-c1c(C)n[nH]c1CNCCN(C)C2=O [Ex. 127, [3a(4)Z]-6,9,16-trimethyl-9,10,11,12,13,14-hexahydro-1,17-(ethanediylidene)pyrazolo[4,3-m]dipyrrolo[3,2-f:3′,4′-i][1,4]diazacyclopentadecine-3,8(2H,5H)-dione]",62,72,0,0.65,5.3,6.9,47,,,,,,,
"Cc1cc2c([nH]1)/C=C1\C(=O)Nc3ccc(cc31)-c1ccnn1CCNCCNC2=O [Ex. 43, [19a(20)Z]-2-methyl-5,6,7,8,9,10-hexahydro-15,17-(ethanediylidene)pyrazolo[1,5-g]dipyrrolo[3,4-k:2′,3′-n][1,4,7]triazacyclohexadecine-4,19(1H,18H)-dione]",92,92,68,75,72,100,80,,,,,,,
"Cc1cc2c([nH]1)/C=C1\C(=O)Nc3ccc(cc31)-c1cnn(C)c1CNCCN(C)C2=O [Ex. 125, [3a(4)Z]-6,9,14-trimethyl-9,10,11,12,13,14-hexahydro-1,17-(ethanediylidene)pyrazolo[4,3-m]dipyrrolo[3,2-f:3′,4′-i][1,4]diazacyclopentadecine-3,8(2H,5H)-dione]",27,88,0,0.1,1.4,2.2,7.7,,,,,,,
"Cc1cc2c([nH]1)/C=C1\C(=O)Nc3ccc(cc31)-c1ccnn1CCOCCNC2=O [Ex.39, [19a(20)Z]-2-methyl-6,7,9,10-tetrahydro-1H-15,17-(ethanediylidene)pyrazolo[1,5-d]dipyrrolo[3,4-h:2′,3′-k][1,4,14]oxadiazacyclohexadecine-4,19(5H,18H)-dione]",85,77,95,26,100,89,89,,,,,,,
"Cc1cc2c([nH]1)/C=C1\C(=O)Nc3ccc(nc31)-c1ccccc1OCCCNC2=O [Ex.22, [3a(4)Z]-6-methyl-9,10,11,12-tetrahydro-1,18-(ethanediylidene)dipyrrolo[3,2-g:3′,4′-j][1,5,12]benzoxadiazacyclopentadecine-3,8(2H,5H)-dione]",100,95,97,100,100,95,100,,,,,,,
"Cc1cc2c([nH]1)/C=C1\C(=O)Nc3ccc(cc31)O[C@@H](C)COCCN(C)C2=O [Ex. 92, [10S,16a(17)Z]-2,5,10-trimethyl-6,7,9,10-tetrahydro-1H-12,14-(ethanediylidene)dipyrrolo[3,2-i:3′,4′-l][1,4,7]dioxazacyclopentadecine-4,16(5H,15H)-dione]",91,98,12,66,57,43,95,,,,,,,
"Cc1nn(C)c2c1-c1ccc3c(c1)/C(=C/c1[nH]ccc1C(=O)N(C)CCCO2)C(=O)N3 [Ex. 150, [3a(4)Z]-9,14,16-trimethyl-10,11,13,14-tetrahydro-2H-1,17-(ethanediylidene)pyrazolo[4,3-m]dipyrrolo[3,2-f:3′,4′-i][1,4]oxazacyclopentadecine-3,8(5H,9H)-dione]",,,,,,,,97,8,93,83,71,95,92
